Data published in US20080009418A1, “Selective Inhibitors” (Alchemia LTD., priority 2004, published 2008).

Key:
Human melanocortin (MC5) = molecular target: T1, Human melanocortin (MC5) (Homo sapiens, UniProt P33032); experiment: Radioligand binding, human melanocortin MC5 membranes, FlashPlate, [125I]-NDP-αMSH; details: compound at 10 μM, [125I]-NDP-αMSH
T1 construct: purchased Perkin Elmer Biosignal
Procedure, shortened: (§1)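 Cloned human receptor membranes were coated onto FlashPlate wells and incubated with radioligand and compound (added from a 0.5 mM DMSO daughter plate) for 1 hour at room temperature in the dark. Scintillation counting gave percent inhibition, with DMSO defining total and reference ligand defining non-specific binding.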

Human neurokinin (NK1) = molecular target: T2, Human neurokinin (NK1) (Homo sapiens, UniProt P25103); experiment: Radioligand binding, human neurokinin NK1 membranes, filtration, [125I]-Substance P; details: compound at 10 μM, [125I]-Substance P
T2 construct: purchased Perkin Elmer Biosignal
Procedure, shortened: (§2)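 Membranes from cloned human receptors were incubated with compound and radioligand for 1 hour at room temperature. Bound ligand was collected on 0.3% PEI-soaked filters, washed with cold 50 mM Tris-HCl pH 7.4, and counted by scintillation. Percent inhibition was computed against DMSO totals and reference-ligand nonspecific wells.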

[1] = molecular target: T3, Human melanin-concentrating hormone (MCH1) (Homo sapiens, UniProt Q99705); experiment: Radioligand binding, human melanin-concentrating hormone MCH1 membranes, FlashPlate, [125I]-S36057; details: compound at 10 μM
T3 construct: purchased Perkin Elmer Biosignal
Procedure, shortened: as §1

Mouse urotensin (mUR2) = molecular target: T4, Mouse urotensin (mUR2) (Mus musculus, UniProt Q8VIH9); experiment: Radioligand binding, mouse urotensin mUR2 membranes, FlashPlate, [125I]-Urotensin II; details: compound at 10 μM, [125I]-Urotensin II
T4 construct: purchased Perkin Elmer Biosignal
T4 sequence (Q8VIH9 1-385): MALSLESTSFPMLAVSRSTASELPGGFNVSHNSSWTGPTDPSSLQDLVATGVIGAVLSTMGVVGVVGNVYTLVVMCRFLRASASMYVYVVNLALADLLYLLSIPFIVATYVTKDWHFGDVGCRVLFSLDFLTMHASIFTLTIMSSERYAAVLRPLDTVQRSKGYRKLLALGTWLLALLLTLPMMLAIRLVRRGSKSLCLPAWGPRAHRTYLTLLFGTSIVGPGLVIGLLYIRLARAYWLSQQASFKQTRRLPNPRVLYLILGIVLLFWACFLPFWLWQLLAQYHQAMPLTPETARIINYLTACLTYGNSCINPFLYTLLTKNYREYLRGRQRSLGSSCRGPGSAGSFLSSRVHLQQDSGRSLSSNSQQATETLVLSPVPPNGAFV
Procedure, shortened: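 Cloned mouse urotensin (mUR2) receptor membranes from Perkin Elmer Biosignal were immobilized in FlashPlate microplates using a proprietary coating. Each well got 19.5 μl buffer, then 0.5 μl of DMSO, reference ligand, or compound. Adding 5 μl of [125I]-Urotensin II, diluted to 5× final concentration in binding buffer, started binding. Plates were sealed with TopSeal-A and incubated 1 hour at room temperature in the dark. Wells were counted for 30 seconds each on a TopCount after a 60-second delay, and percentage inhibition was calculated.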

Human δ-opioid (DOP) = molecular target: T5, Human δ-opioid (DOP) (Homo sapiens, UniProt P41143); experiment: Radioligand binding, human δ-opioid (DOP) membranes, FlashPlate, [3H]-Bremazocine; details: compound at 10 μM, [3H]-Bremazocine
T5 construct: purchased Perkin Elmer Biosignal
Procedure, shortened: as §1

Human opioid (ORL1) = molecular target: T6, Human opioid (ORL1) (Homo sapiens, UniProt P41146); experiment: Radioligand binding, human opioid ORL1 membranes, FlashPlate, [125I]-Nociceptin; details: compound at 10 μM, [125I]-Nociceptin
T6 construct: purchased Perkin Elmer Biosignal
Procedure, shortened: as §1

Human Melanocortin (MC3) = molecular target: T7, Human Melanocortin (MC3) (Homo sapiens, UniProt P41968); experiment: Radioligand binding, human melanocortin MC3 membranes, FlashPlate, [125I]-NDP-αMSH; details: compound at 10 μM, [125I]-NDP-αMSH
T7 construct: purchased Perkin Elmer Biosignal
Procedure, shortened: as §1

[2] = molecular target: T8, Human neuropeptide Y (NPY-Y1) (Homo sapiens, UniProt P25929); experiment: Radioligand binding, human neuropeptide Y NPY-Y1 membranes, FlashPlate, [125I]-PYY; details: compound at 10 μM, [125I]-PYY
T8 construct: purchased Perkin Elmer Biosignal
T8 sequence (P25929 1-384): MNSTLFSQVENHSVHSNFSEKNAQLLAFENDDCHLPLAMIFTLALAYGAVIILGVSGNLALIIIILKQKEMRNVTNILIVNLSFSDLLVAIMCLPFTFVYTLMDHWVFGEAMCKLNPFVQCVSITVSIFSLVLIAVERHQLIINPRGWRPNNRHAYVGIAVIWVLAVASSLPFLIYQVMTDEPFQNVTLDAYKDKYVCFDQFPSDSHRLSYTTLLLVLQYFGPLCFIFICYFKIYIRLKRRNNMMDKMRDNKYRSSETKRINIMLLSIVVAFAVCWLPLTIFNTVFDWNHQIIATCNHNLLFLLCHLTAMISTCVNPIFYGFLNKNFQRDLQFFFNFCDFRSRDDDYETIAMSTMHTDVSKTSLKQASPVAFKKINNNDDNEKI
Procedure, shortened: as §1

Human Melanocortin (MC4) = molecular target: T9, Human Melanocortin (MC4) (Homo sapiens, UniProt P32245); experiment: Radioligand binding, human melanocortin MC4 membranes, FlashPlate, [125I]-NDP-αMSH; details: compound at 10 μM, [125I]-NDP-αMSH
T9 construct: purchased Perkin Elmer Biosignal
Procedure, shortened: as §1

Human κ-Opioid (KOP) = molecular target: T10, Human κ-Opioid (KOP) (Homo sapiens, UniProt P41145); experiment: Radioligand binding, human κ-opioid (KOP) membranes, filtration, [3H]-Diprenorphine; details: compound at 10 μM, [3H]-Diprenorphine
T10 construct: purchased Perkin Elmer Biosignal
Procedure, shortened: as §2

Human μ-opioid (MOP) = molecular target: T11, Human μ-opioid (MOP) (Homo sapiens, UniProt P35372); experiment: Radioligand binding, human μ-opioid (MOP) membranes, FlashPlate, [3H]-Naloxone; details: compound at 10 μM, [3H]-Naloxone
T11 construct: purchased Perkin Elmer Biosignal
Procedure, shortened: as §1

T5 sequence (P41143 whole entry): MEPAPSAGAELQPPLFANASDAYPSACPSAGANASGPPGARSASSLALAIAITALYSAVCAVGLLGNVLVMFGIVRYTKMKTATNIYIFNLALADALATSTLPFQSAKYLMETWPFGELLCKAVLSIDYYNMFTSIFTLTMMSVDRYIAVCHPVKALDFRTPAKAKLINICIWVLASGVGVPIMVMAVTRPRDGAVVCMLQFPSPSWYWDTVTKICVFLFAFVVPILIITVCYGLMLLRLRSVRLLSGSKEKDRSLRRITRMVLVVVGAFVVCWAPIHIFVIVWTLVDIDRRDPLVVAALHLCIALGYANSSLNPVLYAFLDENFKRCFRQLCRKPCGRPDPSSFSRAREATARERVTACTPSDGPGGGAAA
T10 sequence (P41145 whole entry): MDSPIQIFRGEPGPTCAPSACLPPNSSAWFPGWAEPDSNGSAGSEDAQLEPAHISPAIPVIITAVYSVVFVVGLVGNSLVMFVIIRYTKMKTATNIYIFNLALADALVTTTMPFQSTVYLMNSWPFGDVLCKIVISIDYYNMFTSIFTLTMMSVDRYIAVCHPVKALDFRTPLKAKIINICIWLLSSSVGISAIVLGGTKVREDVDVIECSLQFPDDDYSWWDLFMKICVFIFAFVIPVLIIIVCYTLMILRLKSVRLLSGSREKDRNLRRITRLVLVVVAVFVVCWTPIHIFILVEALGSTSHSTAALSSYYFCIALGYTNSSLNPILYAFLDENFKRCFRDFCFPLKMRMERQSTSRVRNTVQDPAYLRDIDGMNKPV
T6 sequence (P41146 whole entry): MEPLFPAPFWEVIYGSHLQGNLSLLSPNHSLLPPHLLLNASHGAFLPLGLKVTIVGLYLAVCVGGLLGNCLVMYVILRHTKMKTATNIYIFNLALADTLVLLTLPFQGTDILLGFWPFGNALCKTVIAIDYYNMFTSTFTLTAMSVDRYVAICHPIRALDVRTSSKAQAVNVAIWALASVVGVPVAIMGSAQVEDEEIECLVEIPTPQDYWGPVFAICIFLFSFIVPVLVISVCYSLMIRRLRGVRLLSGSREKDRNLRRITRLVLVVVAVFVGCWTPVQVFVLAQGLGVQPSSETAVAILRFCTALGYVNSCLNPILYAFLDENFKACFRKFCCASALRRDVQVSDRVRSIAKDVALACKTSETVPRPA
T9 sequence (P32245 whole entry): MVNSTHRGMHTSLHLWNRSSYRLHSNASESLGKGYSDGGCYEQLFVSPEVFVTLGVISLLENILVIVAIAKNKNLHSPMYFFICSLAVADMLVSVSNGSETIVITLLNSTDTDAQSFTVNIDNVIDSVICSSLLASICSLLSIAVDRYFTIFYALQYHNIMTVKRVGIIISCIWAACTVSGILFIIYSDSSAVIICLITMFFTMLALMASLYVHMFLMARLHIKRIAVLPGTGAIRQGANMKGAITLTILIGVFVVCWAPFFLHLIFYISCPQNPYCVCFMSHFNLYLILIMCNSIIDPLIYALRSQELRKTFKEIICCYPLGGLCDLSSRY
T1 sequence (P33032 whole entry): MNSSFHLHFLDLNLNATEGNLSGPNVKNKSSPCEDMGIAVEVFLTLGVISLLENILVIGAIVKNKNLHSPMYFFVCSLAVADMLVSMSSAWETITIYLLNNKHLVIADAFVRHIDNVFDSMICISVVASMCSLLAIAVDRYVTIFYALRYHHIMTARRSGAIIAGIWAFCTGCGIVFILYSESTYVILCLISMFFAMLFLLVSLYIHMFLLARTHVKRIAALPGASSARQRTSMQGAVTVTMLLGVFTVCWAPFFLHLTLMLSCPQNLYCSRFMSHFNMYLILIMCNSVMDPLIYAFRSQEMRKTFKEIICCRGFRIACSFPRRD
T2 sequence (P25103 whole entry): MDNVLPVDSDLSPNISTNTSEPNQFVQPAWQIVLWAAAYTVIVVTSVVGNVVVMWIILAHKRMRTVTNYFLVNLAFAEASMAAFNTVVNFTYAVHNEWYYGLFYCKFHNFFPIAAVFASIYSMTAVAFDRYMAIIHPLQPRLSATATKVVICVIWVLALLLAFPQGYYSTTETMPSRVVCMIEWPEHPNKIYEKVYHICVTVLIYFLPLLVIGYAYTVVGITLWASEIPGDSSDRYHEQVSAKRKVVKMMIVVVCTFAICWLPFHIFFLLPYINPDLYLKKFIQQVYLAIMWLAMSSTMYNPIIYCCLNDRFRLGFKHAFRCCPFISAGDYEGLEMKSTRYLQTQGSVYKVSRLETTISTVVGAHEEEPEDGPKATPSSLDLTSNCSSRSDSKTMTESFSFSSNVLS
T3 sequence (Q99705 whole entry): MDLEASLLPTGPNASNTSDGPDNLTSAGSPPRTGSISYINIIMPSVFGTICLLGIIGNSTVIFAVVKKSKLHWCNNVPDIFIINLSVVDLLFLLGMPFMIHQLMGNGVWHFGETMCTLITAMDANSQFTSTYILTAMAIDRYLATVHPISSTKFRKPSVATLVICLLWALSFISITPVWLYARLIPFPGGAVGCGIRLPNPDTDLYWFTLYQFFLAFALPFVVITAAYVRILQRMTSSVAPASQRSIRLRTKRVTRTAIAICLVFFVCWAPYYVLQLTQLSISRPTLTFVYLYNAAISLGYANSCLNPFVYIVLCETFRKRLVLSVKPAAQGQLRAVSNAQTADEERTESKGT
T7 sequence (P41968 whole entry): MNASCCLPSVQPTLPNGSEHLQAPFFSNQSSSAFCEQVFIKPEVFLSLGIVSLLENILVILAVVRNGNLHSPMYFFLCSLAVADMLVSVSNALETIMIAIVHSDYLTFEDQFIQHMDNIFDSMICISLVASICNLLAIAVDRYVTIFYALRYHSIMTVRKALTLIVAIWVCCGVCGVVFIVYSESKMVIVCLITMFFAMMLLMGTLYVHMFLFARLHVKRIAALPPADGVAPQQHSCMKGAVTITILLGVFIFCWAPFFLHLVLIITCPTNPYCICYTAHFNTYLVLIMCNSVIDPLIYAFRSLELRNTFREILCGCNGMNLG
T11 sequence (P35372 whole entry): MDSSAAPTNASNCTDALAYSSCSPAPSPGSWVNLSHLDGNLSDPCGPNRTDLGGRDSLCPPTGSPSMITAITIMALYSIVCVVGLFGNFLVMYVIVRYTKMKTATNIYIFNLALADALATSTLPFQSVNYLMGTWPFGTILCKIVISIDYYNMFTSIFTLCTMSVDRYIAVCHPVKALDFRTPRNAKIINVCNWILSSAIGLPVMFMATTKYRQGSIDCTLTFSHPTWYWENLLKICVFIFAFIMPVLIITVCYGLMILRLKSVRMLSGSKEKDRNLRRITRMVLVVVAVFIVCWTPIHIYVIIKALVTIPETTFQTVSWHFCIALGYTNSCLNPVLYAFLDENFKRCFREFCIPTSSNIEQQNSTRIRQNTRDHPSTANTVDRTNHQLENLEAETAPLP

SMILES: NCCCC(=O)NC1C(OCc2ccc(Cl)cc2)OC(COCc2ccc3ccccc3c2)C(O)C1OCc1ccc(Cl)cc1 (single isomer, unassigned) [compound 489]
- A5: inhibition of radioligand binding, human melanocortin (MC5) (Human melanocortin (MC5)): + (“+” indicates greater than 50% inhibition at 10 μM)
- A8: inhibition of radioligand binding, human neurokinin (NK1) (Human neurokinin (NK1)): + (“+” indicates greater than 50% inhibition at 10 μM)
- A6: inhibition of radioligand binding, human melanin-concentrating hormone (MCH1) ([1]; [125I]-S36057, 10 µM): − (“−” indicates less than 50% inhibition at 10 μM)
- A11: inhibition of radioligand binding, mouse urotensin (mUR2) (Mouse urotensin (mUR2)): − (“−” indicates less than 50% inhibition at 10 μM)
- A1: inhibition of radioligand binding, human δ-opioid (DOP) (Human δ-opioid (DOP)): − (“−” indicates less than 50% inhibition at 10 μM)
- A10: inhibition of radioligand binding, human opioid (ORL1) (Human opioid (ORL1)): + (“+” indicates greater than 50% inhibition at 10 μM)
- A3: inhibition of radioligand binding, human melanocortin (MC3) (Human Melanocortin (MC3)): + (“+” indicates greater than 50% inhibition at 10 μM)
- A9: inhibition of radioligand binding, human neuropeptide Y (NPY-Y1) [2]: − (“−” indicates less than 50% inhibition at 10 μM)
- A4: inhibition of radioligand binding, human melanocortin (MC4) (Human Melanocortin (MC4)): + (“+” indicates greater than 50% inhibition at 10 μM)
- A2: inhibition of radioligand binding, human κ-opioid (KOP) (Human κ-Opioid (KOP)): − (“−” indicates less than 50% inhibition at 10 μM)
- A7: inhibition of radioligand binding, human μ-opioid (MOP) (Human μ-opioid (MOP)): + (“+” indicates greater than 50% inhibition at 10 μM)

SMILES: COCC1OC(OCc2ccccc2)C(NC(=O)CCCNC(=N)N)C(OCc2ccccc2)C1O (stereo not shown) [compound 175]
- A5 radioligand binding, percentage inhibition (Human melanocortin (MC5)): − (“−” indicates less than 50% inhibition at 10 μM)
- A8 radioligand binding, percentage inhibition (Human neurokinin (NK1)): + (“+” indicates greater than 50% inhibition at 10 μM)
- A6 radioligand binding, percentage inhibition ([1]; [125I]-S36057): − (“−” indicates less than 50% inhibition at 10 μM)
- A11 radioligand binding, percentage inhibition (Mouse urotensin (mUR2)): − (“−” indicates less than 50% inhibition at 10 μM)
- A1 radioligand binding, percentage inhibition (Human δ-opioid (DOP)): − (“−” indicates less than 50% inhibition at 10 μM)
- A10 radioligand binding, percentage inhibition (Human opioid (ORL1)): − (“−” indicates less than 50% inhibition at 10 μM)
- A3 radioligand binding, percentage inhibition (Human Melanocortin (MC3)): − (“−” indicates less than 50% inhibition at 10 μM)
- A9 radioligand binding, percentage inhibition [2]: − (“−” indicates less than 50% inhibition at 10 μM)
- A4 radioligand binding, percentage inhibition (Human Melanocortin (MC4)): − (“−” indicates less than 50% inhibition at 10 μM)
- A2 radioligand binding, percentage inhibition (Human κ-Opioid (KOP)): − (“−” indicates less than 50% inhibition at 10 μM)
- A7 radioligand binding, percentage inhibition (Human μ-opioid (MOP)): − (“−” indicates less than 50% inhibition at 10 μM)

SMILES: N=C(N)NCCC(=O)NC1C(OCc2ccc(-c3ccccc3)cc2)OC(COCc2ccc3ccccc3c2)C(O)C1OCc1ccc(-c2ccccc2)cc1 (stereo not shown) [compound 414]
- A5: inhibition of radioligand binding (Human melanocortin (MC5); human MC5 membranes): + (“+” indicates greater than 50% inhibition at 10 μM)
- A8: inhibition of radioligand binding (Human neurokinin (NK1); human NK1 membranes): + (“+” indicates greater than 50% inhibition at 10 μM)
- A6: inhibition of radioligand binding ([1]; [125I]-S36057, human MCH1 membranes): − (“−” indicates less than 50% inhibition at 10 μM)
- A11: inhibition of radioligand binding (Mouse urotensin (mUR2); mouse mUR2 membranes): − (“−” indicates less than 50% inhibition at 10 μM)
- A1: inhibition of radioligand binding (Human δ-opioid (DOP); human DOP membranes): − (“−” indicates less than 50% inhibition at 10 μM)
- A10: inhibition of radioligand binding (Human opioid (ORL1); human ORL1 membranes): − (“−” indicates less than 50% inhibition at 10 μM)
- A3: inhibition of radioligand binding (Human Melanocortin (MC3); human MC3 membranes): − (“−” indicates less than 50% inhibition at 10 μM)
- A9: inhibition of radioligand binding ([2]; human NPY-Y1 membranes): − (“−” indicates less than 50% inhibition at 10 μM)
- A4: inhibition of radioligand binding (Human Melanocortin (MC4); human MC4 membranes): − (“−” indicates less than 50% inhibition at 10 μM)
- A2: inhibition of radioligand binding (Human κ-Opioid (KOP); human KOP membranes): − (“−” indicates less than 50% inhibition at 10 μM)
- A7: inhibition of radioligand binding (Human μ-opioid (MOP); human MOP membranes): − (“−” indicates less than 50% inhibition at 10 μM)

SMILES: CSC1OC(COCc2ccc(Cl)cc2)C(O)C(OCc2ccc(Cl)cc2)C1NC(=O)CCN (stereo not shown) [compound 271]
- A5: inhibition of radioligand binding (Human melanocortin (MC5); FlashPlate): − (“−” indicates less than 50% inhibition at 10 μM)
- A8: inhibition of radioligand binding (Human neurokinin (NK1); filtration): + (“+” indicates greater than 50% inhibition at 10 μM)
- A6: inhibition of radioligand binding ([1]; [125I]-S36057, FlashPlate): − (“−” indicates less than 50% inhibition at 10 μM)
- A11: inhibition of radioligand binding (Mouse urotensin (mUR2); FlashPlate): − (“−” indicates less than 50% inhibition at 10 μM)
- A1: inhibition of radioligand binding (Human δ-opioid (DOP); FlashPlate): − (“−” indicates less than 50% inhibition at 10 μM)
- A10: inhibition of radioligand binding (Human opioid (ORL1); FlashPlate): − (“−” indicates less than 50% inhibition at 10 μM)
- A3: inhibition of radioligand binding (Human Melanocortin (MC3); FlashPlate): − (“−” indicates less than 50% inhibition at 10 μM)
- A9: inhibition of radioligand binding ([2]; FlashPlate): − (“−” indicates less than 50% inhibition at 10 μM)
- A4: inhibition of radioligand binding (Human Melanocortin (MC4); FlashPlate): − (“−” indicates less than 50% inhibition at 10 μM)
- A2: inhibition of radioligand binding (Human κ-Opioid (KOP); filtration): − (“−” indicates less than 50% inhibition at 10 μM)
- A7: inhibition of radioligand binding (Human μ-opioid (MOP); FlashPlate): − (“−” indicates less than 50% inhibition at 10 μM)

SMILES: COC[C@H]1OC(OCc2ccc(Cl)cc2)[C@H](NC(=O)CCCN)[C@@H](OCc2ccc(-c3ccccc3)cc2)[C@@H]1O (stereo partly shown) [compound 342]
- A5: inhibition of radioligand binding, human melanocortin (MC5) (Human melanocortin (MC5)): − (“−” indicates less than 50% inhibition at 10 μM)
- A8: inhibition of radioligand binding, human neurokinin (NK1) (Human neurokinin (NK1)): + (“+” indicates greater than 50% inhibition at 10 μM)
- A6: inhibition of radioligand binding, human melanin-concentrating hormone (MCH1) ([1]; [125I]-S36057): − (“−” indicates less than 50% inhibition at 10 μM)
- A11: inhibition of radioligand binding, mouse urotensin (mUR2) (Mouse urotensin (mUR2)): − (“−” indicates less than 50% inhibition at 10 μM)
- A1: inhibition of radioligand binding, human δ-opioid (DOP) (Human δ-opioid (DOP)): − (“−” indicates less than 50% inhibition at 10 μM)
- A10: inhibition of radioligand binding, human opioid (ORL1) (Human opioid (ORL1)): − (“−” indicates less than 50% inhibition at 10 μM)
- A3: inhibition of radioligand binding, human melanocortin (MC3) (Human Melanocortin (MC3)): − (“−” indicates less than 50% inhibition at 10 μM)
- A9: inhibition of radioligand binding, human neuropeptide Y (NPY-Y1) [2]: − (“−” indicates less than 50% inhibition at 10 μM)
- A4: inhibition of radioligand binding, human melanocortin (MC4) (Human Melanocortin (MC4)): + (“+” indicates greater than 50% inhibition at 10 μM)
- A2: inhibition of radioligand binding, human κ-opioid (KOP) (Human κ-Opioid (KOP)): − (“−” indicates less than 50% inhibition at 10 μM)
- A7: inhibition of radioligand binding, human μ-opioid (MOP) (Human μ-opioid (MOP)): + (“+” indicates greater than 50% inhibition at 10 μM)
